In patent US7638639B2, “Substituted pyrrolidine and related compounds” (Theravance, Inc., priority 2003, dated 2009):

Tested on: methacholine-induced decrease in mean arterial pressure
Assay: Methacholine-induced depressor responses in conscious guinea pigs
Format: in vivo
Settings: guinea pig, inhalation
From the text: Methacholine-Induced Depressor Responses in Conscious Guinea Pigs
Healthy, adult, male Sprague-Dawley guinea pigs (Harlan, Indianapolis, Ind.), weighing between 200 and 300 g were used in these studies. Under isoflurane anesthesia (to effect), animals were instrumented with common carotid artery and jugular vein catheters (PE-50 tubing). The catheters were exteriorized utilizing a subcutaneous tunnel to the subscapular area. All surgical incisions were sutured with 4-0 Ethicon Silk and the catheters locked with heparin (1000 units/mL). Each animal was administered saline (3 mL, SC) at the end of surgery as well as buprenorphine (0.05 mg/kg, IM). Animals were allowed to recover on a heating pad before being returned to their holding rooms.
Approximately 18 to 20 hours following surgery, the animals were weighed and the carotid artery catheter on each animal was connected to a transducer for recording arterial pressure. Arterial pressure and heart rate was recorded using a Biopac MP-100 Acquisition System. Animals were allowed to acclimate and stabilize for a period of 20 minutes.
Each animal was challenged with methylcholine (MCh) (0.3 mg/kg, iv) administer through the jugular venous line and the cardiovascular response was monitored for 10 minutes. […] At 1.5 and 24 h post-dosing, the animals were re-challenged with MCh (0.3 mg/kg, iv) and the hemodynamic response was determined. […]

CNCCCCCCCCN1CC[C@@H](C(C(N)=O)(c2ccccc2)c2ccccc2)C1 [Example 1, 2-[(S)-1-(8-Methylaminooctyl)pyrrolidin-3-yl]-2,2-diphenylacetamide]
apparent lung-selectivity index (anti-depressor ID50 / bronchoprotective ID50): greater than 5
